Values of other authors as cited in PMC7870075, “Physicochemical properties and formulation development of a novel compound inhibiting Staphylococcus aureus biofilm formation” (PLoS ONE, 2021).

Design: method as in PMID 23433668
Conditions: cited from earlier work

C=CCn1c(NCC)nc2c(c1=O)C(C)(C)Cc1cc(OC)ccc1-2 [CCG-203592]
half-life in mouse liver microsomes (t1/2): 48 s
